Source: ChEMBL document CHEMBL3600290, “From hybrid compounds to targeted drug delivery in antimalarial therapy” (Bioorg Med Chem, 2015)
pIC50: −log10 of the molar value. Values after ≈ are worked out from the molar mass of the structure shown. Numbered stars: 1 amine (or outer) side, 2 acyl side, 3 side chain; on linkers, the order of the positions; unused ones are H or OH. Square brackets hold non-standard residues; d marks the D form. Peptide text beside a SMILES is read from it. * marks the point of attachment. hPhe = N[C@@H](CCc1ccccc1)C(=O)O; Morpholide = C1CN(*)CCO1; CO = O=C([*:1])[*:2]

What was measured:
[1] = tested on: Plasmodium falciparum; test: Antimalarial activity against Plasmodium falciparum W2 assessed as inhibition of parasite growth; format: functional, organism-based
[2] = Inhibition of Plasmodium falciparum FP2
[3] = tested on: Plasmodium falciparum; test: Antimalarial activity against Plasmodium falciparum 3D7 assessed as inhibition of parasite growth; format: functional, organism-based
[4] = Inhibition of Plasmodium falciparum DPAP1 after 30 mins
[5] = tested on: Plasmodium falciparum; test: Antimalarial activity against Plasmodium falciparum D10 assessed as inhibition of parasite growth; format: functional, organism-based
[6] = tested on: Plasmodium falciparum; test: Antimalarial activity against Plasmodium falciparum infected in mouse assessed as mouse survival at 3x10 mg/kg/day, po; format: functional
[7] = tested on: Plasmodium falciparum; test: Antimalarial activity against chloroquine-resistant Plasmodium falciparum K1 assessed as inhibition of parasite growth; format: functional, organism-based
[8] = tested on: Plasmodium falciparum; test: Antimalarial activity against Plasmodium falciparum infected in mouse assessed as suppression of parasitemia at 3x10 mg/kg/day, po measured at day 4 post-infection; format: functional
[9] = tested on: Plasmodium berghei; test: Antimalarial activity against liver stage of Plasmodium berghei; format: functional, organism-based
[10] = tested on: Plasmodium falciparum; test: Antimalarial activity against Plasmodium falciparum NF54 assessed as inhibition of parasite growth; format: functional, organism-based
[11] = tested on: Plasmodium falciparum; test: Antimalarial activity against Plasmodium falciparum FcB1; format: functional, organism-based
[12] = tested on: Plasmodium falciparum; test: Antimalarial activity against Plasmodium falciparum F32; format: functional, organism-based
[13] = tested on: Plasmodium falciparum; test: Antimalarial activity against Plasmodium falciparum Dd2 assessed as inhibition of parasite growth; format: functional, organism-based
[14] = tested on: Plasmodium falciparum; test: Antimalarial activity against Plasmodium falciparum infected in mouse assessed as cure rate at 26 to 32 mg/kg/day administered po or ip; format: functional
[15] = tested on: Plasmodium falciparum; test: Antimalarial activity against Plasmodium falciparum D6 assessed as inhibition of parasite growth; format: functional, organism-based
[16] = Inhibition of beta-hematin formation; format: physicochemical

Which results are given for `CC(C)(C[C@H](NC(=O)N1CCOCC1)C(=O)N[C@H](/C=C/S(=O)(=O)c1ccccc1)CCc1ccccc1)OC(=O)OCC[C@@]1(CCC(=O)NCCCN2CCCC2=O)OOC2(O1)C1CC3CC(C1)CC2C3` (stereo partly drawn)?
pIC50 [1]: 6.22; pIC50 [2]: 4.30

With `COc1ccc(C[C@H](NC(=O)OC2CCCC3(C2)OOC2(O3)C3CC4CC(C3)CC2C4)C(=O)N[C@H]2[C@@H](O)[C@H](n3cnc4c(N(C)C)ncnc43)O[C@@H]2CO)cc1` (stereo partly drawn) as the compound, how does the pIC50 [1] read?
The pIC50 was 8.00.

With `CC(C)C[C@H](NC(=O)C1CCC(=O)CC1)C(=O)N[C@H](/C=C/S(=O)(=O)c1ccccc1)CCc1ccccc1` as the compound, how does the pIC50 [1] read?
The pIC50 was 7.58.

What about the pIC50 [3] of the same compound?
Its pIC50 is 6.54.

What about the pIC50 [2] of the same compound?
Its pIC50 is 7.16.

Which results are given for `CCCCC(C(=O)COc1c(F)c(F)cc(F)c1F)n1cc([C@@](C)(N)C2CCCC2)nn1` (stereo partly drawn)?
pIC50 [4]: 7.15; pIC50 [5]: 8.28

With `CC(C)(O)C[C@H](NC(=O)N1CCOCC1)C(=O)N[C@H](/C=C/S(=O)(=O)c1ccccc1)CCc1ccccc1` as the compound, how does the pIC50 [1] read?
Its pIC50 is 6.74.

And the pIC50 [2]?
The pIC50 was 5.99.

Which Survival [6] does the source give for `CCN(CC)Cc1cc(C2CCC3(CC2)OOC2(OO3)C3CC4CC(C3)CC2C4)ccc1O` (stereo not drawn) here?
The Survival was over 20 days.

What about the pIC50 [7] of the same compound?
The pIC50 was 8.24.

And the pIC50 [1]?
Its pIC50 is 8.29.

And the “inhibition (INH)” value [8]?
Its value is 99.8%.

With `CC(C)CN(NC(=O)C1CCC(=O)CC1)c1nc(C#N)ncc1Br` as the compound, how does the pIC50 [2] read?
The pIC50 was 7.23.

With `CC(C)C[C@H](NC(=O)C1CCC2(CC1)OOC1(OO2)C2CC3CC(C2)CC1C3)C(=O)N[C@H](/C=C/S(=O)(=O)c1ccccc1)CCc1ccccc1` (stereo partly drawn) as the compound, how does the pIC50 [1] read?
The pIC50 was 7.73.

What about the pIC50 [3] of the same compound?
Its pIC50 is 7.55.

And the pIC50 [2]?
Its pIC50 is 5.74.

With `COc1ccc(C[C@H](N)C(=O)N[C@H]2[C@@H](O)[C@H](n3cnc4c(N(C)C)ncnc43)O[C@@H]2CO)cc1` [PUROMYCIN] as the compound, how does the pIC50 [1] read?
Its pIC50 is 7.38.

With `COc1cc(NC(C)CCCNC(=O)c2ccc(CO[C@H]3O[C@@H]4O[C@@]5(C)CC[C@H]6[C@H](C)CC[C@@H]([C@H]3C)[C@@]46OO5)cc2)c2ncccc2c1` (stereo partly drawn) as the compound, how does the pIC50 [1] read?
Its pIC50 is 8.29.

And the pIC50 [9]?
Its pIC50 is 7.17.

With `CC(C)C[C@H](NC(=O)N1CCOCC1)C(=O)N[C@H](C=O)CCc1ccccc1` ({Morpholide-CO}-Leu-[hPhe]-aldehyde) as the compound, how does the pIC50 [2] read?
The pIC50 was 7.79.

With `COc1ccc2nc3cc(Cl)ccc3c(Nc3cccc(Nc4ccnc5cc(Cl)ccc45)c3)c2c1` as the compound, how does the MIC [10] read?
The MIC was 0.25 mg/L (≈ 0.489 µM).

With `C[C@@H]1CC[C@H]2C(CN3CCCCC3[C@H](O)c3cc(C(F)(F)F)nc4c(C(F)(F)F)cccc34)=C(C(F)(F)F)O[C@@H]3O[C@@]4(C)CC[C@@H]1[C@]32OO4` (stereo partly drawn) as the compound, how does the pIC50 [7] read?
Its pIC50 is 7.97.

What about the pIC50 [11] of the same compound?
Its pIC50 is 7.76.

What about the pIC50 [12] of the same compound?
The pIC50 was 7.80.

For `CCN(CC)CCCC(C)Nc1ccnc2cc(Cl)ccc12` (stereo not drawn) [CHLOROQUINE], which MIC [10] is on record?
The MIC was 0.125 mg/L (≈ 0.391 µM).

With `COc1cc(NC(C)CCCNc2ccnc3cc(Cl)ccc23)c2ncccc2c1` (stereo not drawn) as the compound, how does the pIC50 [3] read?
The pIC50 was 6.19.

What about the pIC50 [13] of the same compound?
The pIC50 was 6.24.

With `COc1ccc2nccc([C@@H](O)[C@@H]3C[C@@H]4CCN3C[C@@H]4CC(=O)O[C@@H]3O[C@@H]4O[C@@]5(C)CC[C@H]6[C@H](C)CC[C@@H]([C@H]3C)[C@@]46OO5)c2c1` as the compound, how does the pIC50 [11] read?
The pIC50 was 8.02.

What about the pIC50 [3] of the same compound?
Its pIC50 is 8.05.

Which results are given for `Cc1ccc2c(c1)/C(=N/NC(N)=S)C(=O)N2CCNc1ccnc2cc(Cl)ccc12`?
pIC50 [1]: 7.29; pIC50 [2]: 4.93; pIC50 [5]: 7.10

With `Clc1ccc2c(NCCNC(CCN3CCCCC3)c3ccccc3)ccnc2c1` (stereo not drawn) as the compound, how does the pIC50 [10] read?
The pIC50 was 8.15.

With `CCCCC(C(=O)COc1c(F)c(F)cc(F)c1F)n1cc([C@@](C)(NC(=O)OCC[C@@]2(CCC(=O)NCCCN3CCCC3=O)OOC3(O2)C2CC4CC(C2)CC3C4)C2CCCC2)nn1` (stereo partly drawn) as the compound, how does the pIC50 [4] read?
The pIC50 was 5.00.

And the pIC50 [5]?
The pIC50 was 8.40.

What does the source list for `CC1(C)COC2(CCC(NC3CCC(Nc4ccnc5cc(Cl)ccc45)CC3)CC2)OO1` (stereo not drawn)?
Activity [14]: 100%; pIC50 [11]: 7.62; pIC50 [1]: 7.82; pIC50 [12]: 7.89

With `CC(C)C[C@@H](NC(=O)/C=C/c1ccccc1)C(=O)N[C@H](CCc1ccccc1)C(=O)Nc1ccnc2cc(Cl)ccc12` as the compound, how does the pIC50 [2] read?
Its pIC50 is 4.71.

With `O=C(NCCNc1ccnc2cc(Cl)ccc12)N/N=C/c1ccc(O)c(CN2CCN(c3ccnc4cc(Cl)ccc34)CC2)c1O` as the compound, how does the pIC50 [2] read?
The pIC50 was 5.50.

Which results are given for `Clc1ccc2c(NCCCN3CCC(NC(c4ccccn4)c4ccccn4)CC3)ccnc2c1` [DM-1157]?
pIC50 [15]: 9.05; pIC50 [13]: 8.80; pIC50 [16]: 5.80

With `C[C@@H]1CC[C@H]2[C@@H](C)C(=O)O[C@@H]3O[C@@]4(C)CC[C@@H]1[C@]32OO4` [ARTEMISININ] as the compound, how does the pIC50 [7] read?
Its pIC50 is 7.33.

With `C[C@H]1[C@H](OCCNCCNc2ccnc3cc(Cl)ccc23)O[C@@H]2O[C@@]3(C)CC[C@H]4[C@H](C)CC[C@@H]1[C@@]24OO3` as the compound, how does the pIC50 [3] read?
Its pIC50 is 7.69.

And the pIC50 [13]?
The pIC50 was 7.59.

And the pIC50 [5]?
The pIC50 was 7.67.

With `CC(C)C[C@H](NC(=O)c1ccc(CO[C@H]2O[C@@H]3O[C@@]4(C)CC[C@H]5[C@H](C)CC[C@@H]([C@H]2C)[C@@]35OO4)cc1)C(=O)N[C@H](/C=C/S(C)(=O)=O)CCc1ccccc1` as the compound, how does the pIC50 [2] read?
The pIC50 was 5.46.

With `CC(C)CN(NC(=O)C1CCC2(CC1)OOC1(OO2)C2CC3CC(C2)CC1C3)c1nc(C#N)ncc1Br` (stereo not drawn) as the compound, how does the pIC50 [2] read?
Its pIC50 is 7.79.

With `CC(C)C[C@H](NC(=O)N1CCOCC1)C(=O)N[C@@H](CCc1ccccc1)[C@@H]1OOC2(O1)C1CC3CC(C1)CC2C3` (stereo partly drawn) as the compound, how does the pIC50 [3] read?
Its pIC50 is 7.45.

What about the pIC50 [2] of the same compound?
The pIC50 was 6.29.

With `COc1cc(NC(C)CCCNC2CCC3(CC2)OOC2(OO3)C3CC4CC(C3)CC2C4)c2ncccc2c1` (stereo not drawn) as the compound, how does the pIC50 [1] read?
Its pIC50 is 7.66.

And the pIC50 [9]?
The pIC50 was 6.48.

With `C[C@@H]1C(=O)C[C@H]2C[C@@H]1OO[C@@]2(C)/C=C\c1ccc(C(F)(F)F)cc1C(F)(F)F` [ARTEFLENE] as the compound, how does the pIC50 [7] read?
Its pIC50 is 7.82.

With `CC(=O)O[C@@]1(C)CC[C@@H]2C[C@@H]1OO[C@]2(/C=C\c1ccc(Cl)cc1)c1ccccc1` as the compound, how does the pIC50 [7] read?
The pIC50 was 7.64.
